Each structure is given as a SMILES string.

T1 sequence (Q13191 whole entry, species assumed): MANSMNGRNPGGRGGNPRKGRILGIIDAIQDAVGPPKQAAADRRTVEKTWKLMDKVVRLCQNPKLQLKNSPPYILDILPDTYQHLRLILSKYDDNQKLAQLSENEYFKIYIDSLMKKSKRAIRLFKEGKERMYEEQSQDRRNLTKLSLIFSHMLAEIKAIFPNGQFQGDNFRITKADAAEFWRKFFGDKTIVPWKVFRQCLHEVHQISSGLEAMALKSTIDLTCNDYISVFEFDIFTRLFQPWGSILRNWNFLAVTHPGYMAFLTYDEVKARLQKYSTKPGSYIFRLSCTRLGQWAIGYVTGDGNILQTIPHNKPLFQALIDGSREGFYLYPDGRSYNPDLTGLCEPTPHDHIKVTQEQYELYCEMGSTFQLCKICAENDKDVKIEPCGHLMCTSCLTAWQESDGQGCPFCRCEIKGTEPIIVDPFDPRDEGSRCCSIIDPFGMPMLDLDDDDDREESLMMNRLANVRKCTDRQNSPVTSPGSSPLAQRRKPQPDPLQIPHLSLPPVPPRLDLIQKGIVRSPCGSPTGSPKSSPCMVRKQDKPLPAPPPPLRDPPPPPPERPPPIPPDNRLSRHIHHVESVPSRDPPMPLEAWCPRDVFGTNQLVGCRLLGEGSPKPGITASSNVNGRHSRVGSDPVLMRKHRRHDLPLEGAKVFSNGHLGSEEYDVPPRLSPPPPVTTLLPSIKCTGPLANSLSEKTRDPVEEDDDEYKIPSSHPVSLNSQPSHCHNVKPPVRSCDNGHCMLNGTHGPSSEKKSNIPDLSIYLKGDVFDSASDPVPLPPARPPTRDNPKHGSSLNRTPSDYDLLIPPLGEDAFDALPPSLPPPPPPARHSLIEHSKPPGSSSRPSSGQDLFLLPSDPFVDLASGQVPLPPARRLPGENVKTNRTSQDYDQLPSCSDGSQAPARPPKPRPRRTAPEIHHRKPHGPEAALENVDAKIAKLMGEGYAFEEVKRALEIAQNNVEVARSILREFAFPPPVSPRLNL

One test addresses T1, Cbl-b (Homo sapiens, UniProt Q13191).
T1 construct: biotin (biotinylated)
The test can be described thus: Cbl-b probe displacement HTRF binding assay. As to conditions: 0.4 nM biotinylated Cbl-b, 150 nM BODIPY probe. As for the experimental part:
The affinity with which compounds of the present dislcosure bind to Cbl-b was assessed using probe displacement homologous time resolved fluorescence (HTRF) assays. […] The assays were performed in assay buffer consisting of 20 mM Hepes, 150 mM NaCl, 0.01% Triton X-100, 0.5 mM TCEP, 0.01% BSA. On the day of the assay, a 20 point, 1:2 master serial dilution of each compound was prepared in DMSO to span a final concentration range of […] to 0 nM. Two hundred nanoliters of diluted compound was added to each well of a 384-well plate. Fifteen microliters of biotinylated-Cbl-b resuspended in assay buffer were added to each well and the plate incubated for 60 minutes at room temperature prior to addition of 5 μL of BODIPY™ probe in assay buffer. […] After a further 15 minutes of incubation at room temperature, 5 μl of Streptavidin-Terbium cryptate reagent at 5-fold final concentration was added to each well of the 384-well plate. Binding of a probe to Cbl-b results in an increase of HTRF signal. […] Percentage maximum activity in each test well was calculated based on DMSO (maximum activity, 0% displacement) and no protein control wells (baseline activity, 100% displacement). Binding affinity was determined from a dose response curve fitted using a standard four parameter fit equation.
(In general: TR-FRET usually uses a lanthanide donor and a delayed reading to cut background.)
For orientation: IC50 means the concentration that inhibits the measured activity by half. Take `CC1CC(c2cccc(-n3cnc4cc(CN5CCC[C@H](C)C5)[nH]c4c3=O)c2)(c2nncn2C)C1` (mixture of isomers) [Example 119, 6—{[(3S)-3-Methylpiperidin-1-yl]methyl}-3-{3-[(1R,3S)-3-methyl-1-(4-methyl-4H-1,2,4-triazol-3-yl)cyclobutyl]phenyl}-3H,4H,5H-pyrrolo[3,2-d]pyrimidin-4-one]: the IC50 was under 100 nM. Same read-out and setting: the figure for `CC1CC(c2cccc(-n3cc(C4CC4)c4c(-c5cnn(C)c5)c[nH]c4c3=O)c2)(c2nncn2C)C1` (mixture of isomers) [Example 131, 4-Cyclopropyl-3-(1-methyl-1H-pyrazol-4-yl)-6-{3-[(1R,3S)-3-methyl-1-(4-methyl-4H-1,2,4-triazol-3-yl)cyclobutyl]phenyl}-1H,6H,7H-pyrrolo[2,3-c]pyridin-7-one] is under 100 nM; for `CC1CC(c2cccc(-n3cc(C4CC4)c4cc(CN5CCC[C@H](C)C5)n(C)c4c3=O)c2)(c2nncn2C)C1` (stereo partly drawn) [Example 5, 4-cyclopropyl-1-methyl-6-[3-[3-methyl-1-(4-methyl-1,2,4-triazol-3-yl)cyclobutyl]phenyl]-2-[[(3S)-3-methylpiperidin-1-yl]methyl]pyrrolo[2,3-c]pyridin-7-one] it is over 5000 nM; for `CC1CC(c2cccc(-n3cc(C4CC4)c4ccsc4c3=O)c2)(c2nncn2C)C1` (centres unmarked) [Example 6, 4-cyclopropyl-6-{3-[3-methyl-1-(4-methyl-4H-1,2,4-triazol-3-yl)cyclobutyl]phenyl}-6H,7H-thieno[2,3-c]pyridin-7-one] it is over 5000 nM. On the same count and under the same terms, with `Cn1cnnc1C1(c2cccc(-n3cc(C4CC4)c4cc[nH]c4c3=O)c2)CC2(CC2)C1` [Example 10, 4-cyclopropyl-6-[3-[5-(4-methyl-1,2,4-triazol-3-yl)spiro[2.3]hexan-5-yl]phenyl]-1H-pyrrolo[2,3-c]pyridin-7-one] the figure was 100 to 1000 nM.

As for `CC1CC(c2cccc(-n3cc(C4CC4)c4nc[nH]c4c3=O)c2)(c2nncn2C)C1` (centres unmarked) [Example 11, 7-cyclopropyl-5-{3-[(1r,3s)-3-methyl-1-(4-methyl-4H-1,2,4-triazol-3-yl)cyclobutyl]phenyl}-3H,4H,5H-imidazo[4,5-c]pyridin-4-one], the IC50 fell in the range of 100 to 1000 nM. Consider `Cc1c[nH]c2c(=O)n(-c3cccc([C@]4(c5nncn5C)C[C@@H](C)C4)c3)cc(C3CC3)c12` [Example 17, 4-Cyclopropyl-3-methyl-6-{3-[(1r,3s)-3-methyl-1-(4-methyl-4H-1,2,4-triazol-3-yl)cyclobutyl]phenyl}-1H,6H,7H-pyrrolo[2,3-c]pyridin-7-one], for which the IC50 was in the range of 100 to 1000 nM. As for `Cn1cnnc1[C@]1(c2cccc(-n3cc(C4CC4)c4c(C(F)(F)F)c[nH]c4c3=O)c2)C[C@H](C)C1` [Example 18, 4-Cyclopropyl-6-{3-[(1r,3s)-3-methyl-1-(4-methyl-4H-1,2,4-triazol-3-yl)cyclobutyl]phenyl}-3-(trifluoromethyl)-1H,6H,7H-pyrrolo[2,3-c]pyridin-7-one], the IC50 was 100 to 1000 nM.

In turn, `Cc1cn(-c2cccc([C@]3(c4nncn4C)C[C@@H](C)C3)c2)c(=O)c2[nH]ccc12` [Example 29, 4-methyl-6-{3-[(1r,3s)-3-methyl-1-(4-methyl-4H-1,2,4-triazol-3-yl)cyclobutyl]phenyl}-1H,6H,7H-pyrrolo[2,3-c]pyridin-7-one] showed a concentration for half-maximal inhibition (IC50) of 100 to 1000 nM. The same measure, in the same setting: with `CN1CCC(c2cc3c(C4CC4)cn(-c4cccc([C@]5(c6nncn6C)C[C@@H](C)C5)c4)c(=O)c3[nH]2)CC1` [Example 33, 4-cyclopropyl-2-(1-methylpiperidin-4-yl)-6-{3-[(1r,3s)-3-methyl-1-(4-methyl-4H-1,2,4-triazol-3-yl)cyclobutyl]phenyl}-1H,6H,7H-pyrrolo[2,3-c]pyridin-7-one] the figure was 100 to 1000 nM; with `CC1CC(c2cccc(-n3cc(C4CC4)c4cc(CN5CCCC6CC65)[nH]c4c3=O)c2)(c2nncn2C)C1` (centres unmarked) [Example 44, 2-({2-azabicyclo[4.1.0]heptan-2-yl}methyl)-4-cyclopropyl-6-{3-[3-methyl-1-(4-methyl-4H-1,2,4-triazol-3-yl)cyclobutyl]phenyl}-1H,6H,7H-pyrrolo[2,3-c]pyridin-7-one], under 100 nM.

`CC1CC(c2cccc(-n3cc(C4CC4)c4cc(CN5CCC[C@H](C(F)(F)F)C5)[nH]c4c3=O)c2)(c2nncn2C)C1` (some centres unmarked) [Example 48, 4-cyclopropyl-6-{3-[3-methyl-1-(4-methyl-4H-1,2,4-triazol-3-yl)cyclobutyl]phenyl}-2-{[(3S′)-3-(trifluoromethyl)piperidin-1-yl]methyl}-1H,6H,7H-pyrrolo[2,3-c]pyridin-7-one] gave an IC50 of under 100 nM. Still for that read-out and setting: with `CC1CC(c2cccc(-n3cc(C4CC4)c4cc(CN5CC6CC(C5)O6)[nH]c4c3=O)c2)(c2nncn2C)C1` (centres unmarked) [Example 53, 4-cyclopropyl-6-{3-[3-methyl-1-(4-methyl-4H-1,2,4-triazol-3-yl)cyclobutyl]phenyl}-2-({6-oxa-3-azabicyclo[3.1.1]heptan-3-yl}methyl)-1H,6H,7H-pyrrolo[2,3-c]pyridin-7-one] the figure was under 100 nM; with `Cn1cnnc1C1(c2cccc(-n3cc(C4CC4)c4cc(CNC5CCC(F)(F)C5)[nH]c4c3=O)c2)CC(F)(F)C1` (centres unmarked) [Example 80, 4-cyclopropyl-6-{3-[3,3-difluoro-1-(4-methyl-4H-1,2,4-triazol-3-yl)cyclobutyl]phenyl}-2-{[(3,3-difluorocyclopentyl)amino]methyl}-1H,6H,7H-pyrrolo[2,3-c]pyridin-7-one], under 100 nM. Still for that read-out and setting: the figure for `Cn1cnnc1C1(c2cccc(-n3cc(C4CC4)c4cc(CNC5(C)CC(F)(F)C5)[nH]c4c3=O)c2)CC(F)(F)C1` [Example 81, 4-cyclopropyl-6-{3-[3,3-difluoro-1-(4-methyl-4H-1,2,4-triazol-3-yl)cyclobutyl]phenyl}-2-{[(3,3-difluoro-1-methylcyclobutyl)amino]methyl}-1H,6H,7H-pyrrolo[2,3-c]pyridin-7-one] is under 100 nM; for `CC1CC(c2cccc(-n3nc(C4CC4)c4cc[nH]c4c3=O)c2)(c2nncn2C)C1` (centres unmarked) [Example 116, 4-cyclopropyl-6-{3-[3-methyl-1-(4-methyl-4H-1,2,4-triazol-3-yl)cyclobutyl]phenyl}-1H,6H,7H-pyrrolo[2,3-d]pyridazin-7-one] it is 1000 to 5000 nM. The same measure, in the same setting: with `Cn1cnnc1[C@]1(c2cccc(-n3cc(C(F)(F)F)c4c(S(C)(=O)=O)c[nH]c4c3=O)c2)C[C@H](C)C1` [Example 138, 3-Methanesulfonyl-6-{3-[(1R,3S)-3-methyl-1-(4-methyl-4H-1,2,4-triazol-3-yl)cyclobutyl]phenyl}-4-(trifluoromethyl)-1H,6H,7H-pyrrolo[2,3-c]pyridin-7-one] the figure was under 100 nM. As for `C[C@H]1CCCN(Cc2cc3ncn(-c4cccc([C@]5(c6nncn6C(F)F)C[C@H](OC(F)F)C5)c4)c(=O)c3[nH]2)C1` [Example 153, 2—{[(S)-3-methyl-1-piperidyl]methyl}-6-(m-{(1r,3S)-3-difluoromethoxy-1-[4-(difluoromethyl)-4H-1,2,4-triazol-3-yl]cyclobutyl}phenyl)-1,6-dihydro-1,4,6-triaza-7-indenone], the 50% inhibitory concentration (IC50) was under 100 nM. On the same count and under the same terms, with `CC(c1ccnc(-n2cc(C3CC3)c3cc(CN4CCC[C@H](C)C4)[nH]c3c2=O)c1)c1nncn1C` (stereo partly drawn) [Example 157, 2—{[(S)-3-methyl-1-piperidyl]methyl}-4-cyclopropyl-6-{4-[1-(4-methyl-4H-1,2,4-triazol-3-yl)ethyl]-2-pyridyl}-1,6-dihydro-1,6-diaza-7-indenone] the figure was under 100 nM.

A further test has as its system Jurkat cells. The test can be described thus: IL-2 secretion assay in CD3/CD28-activated Jurkat cells (AlphaLISA). The settings on record: Homo sapiens, CD3/CD28 T Cell Activator, 24 h, IL-2 AlphaLISA. The class given is cell-based. As for the experimental part: Certain compounds were also evaluated in an IL-2 secretion assay. On the day of the assay, a 16 point, 1:2 master serial dilution of each compound was prepared in Opti-MEM to span a final concentration range of 10 μM to 300 pM. Assays were set up in CORNING® tissue culture-treated 384-well microplates containing 60 nL of each dilution. […] 50,000 cells/well and added to the compound plates. After a short spin (1200 rpm for 1 min), the plates were incubated at 37° C. for 1 hour. The cells were activated by adding 15 μL of IMMUNOCULT™ Human CD3/CD28 T Cell Activator ([…] Technologies) diluted in Opti-MEM. […] The AiphaLISA signal was measured using an EnVision plate reader (PerkinElmer). EC50 values were determined by fitting the data to a standard 4-parameter logistic equation.
For orientation: Bead proximity is the source of the signal in Alpha formats.
What is called EC50 is the concentration at which the effect is half-maximal. On to `CC1CC(c2cccc(-n3cnc4cc(CN5CCC[C@H](C)C5)[nH]c4c3=O)c2)(c2nncn2C)C1` (mixture of isomers) [Example 119, 6—{[(3S)-3-Methylpiperidin-1-yl]methyl}-3-{3-[(1R,3S)-3-methyl-1-(4-methyl-4H-1,2,4-triazol-3-yl)cyclobutyl]phenyl}-3H,4H,5H-pyrrolo[3,2-d]pyrimidin-4-one], for which the EC50 is under 100 nM. Still for that read-out and setting: with `CC1CC(c2cccc(-n3cc(C4CC4)c4c(-c5cnn(C)c5)c[nH]c4c3=O)c2)(c2nncn2C)C1` (mixture of isomers) [Example 131, 4-Cyclopropyl-3-(1-methyl-1H-pyrazol-4-yl)-6-{3-[(1R,3S)-3-methyl-1-(4-methyl-4H-1,2,4-triazol-3-yl)cyclobutyl]phenyl}-1H,6H,7H-pyrrolo[2,3-c]pyridin-7-one] the figure was over 5000 nM; with `C[C@H]1CCCN(Cc2cc3c(C4CC4)cn(-c4cccc([C@]5(c6nncn6C)C[C@@H](C)C5)c4)c(=O)c3[nH]2)C1` [Example 3, 4-cyclopropyl-6-[3-[3-methyl-1-(4-methyl-1,2,4-triazol-3-yl)cyclobutyl]phenyl]-2-[[(3S)-3-methylpiperidin-1-yl]methyl]-1H-pyrrolo[2,3-c]pyridin-7-one], under 100 nM; with `C[C@H]1CCCN(Cc2cc3c(C4CC4)cn(-c4cccc([C@]5(c6nncn6C)C[C@H](O)C5)c4)c(=O)c3[nH]2)C1` [Example 99, trans-4-cyclopropyl-6-[3-[3-hydroxy-1-(4-methyl-1,2,4-triazol-3-yl)cyclobutyl]phenyl]-2-[[(3S)-3-methylpiperidin-1-yl]methyl]-1H-pyrrolo[2,3-c]pyridin-7-one], 1000 to 5000 nM.

Source of the values: patent US20260028336A1 (Arcus Biosciences, Inc., priority 2022, published 2026).
